From ChEMBL document CHEMBL1201862, “PubChem BioAssay data set” (2004)
Each block holds one compound with its values, some of them ahead of it. Calls of active or inactive are those of the source.

What was measured:
[1] = molecular target: Serine/threonine-protein kinase pim-1 (Homo sapiens, UniProt P11309); type: functional
[2] = molecular target: Homeodomain-interacting protein kinase 2 (Homo sapiens, UniProt Q9H2X6); type: functional;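 also: measured within a kinome-wide kinase profiling panel, HIPK2 being one panel member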
[3] = molecular target: Dual specificity protein kinase CLK4 (Homo sapiens, UniProt Q9HAZ1); type: functional
[4] = molecular target: Mitogen-activated protein kinase kinase kinase kinase 4 (Homo sapiens, UniProt O95819); type: functional
[5] = molecular target: MAP kinase-interacting serine/threonine-protein kinase 2 (Homo sapiens, UniProt Q9HBH9); type: functional
[6] = molecular target: Glycogen synthase kinase-3 beta (Homo sapiens, UniProt P49841); type: functional;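 also: value comes from a broad kinome profiling panel, with GSK3B as the panel member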
[7] = molecular target: Cell division cycle 7-related protein kinase (Homo sapiens, UniProt O00311); type: functional;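 also: value obtained from a kinome-wide kinase panel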
[8] = molecular target: cAMP-dependent protein kinase catalytic subunit alpha (Homo sapiens, UniProt P17612); type: functional
[9] = molecular target: Cyclin-dependent kinase 2 (Homo sapiens, UniProt P24941); type: functional;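 also: CDK2 measured as one member of a broad kinome profiling panel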
[10] = molecular target: Interleukin-1 receptor-associated kinase 4 (Homo sapiens, UniProt Q9NWZ3); type: functional
[11] = molecular target: Protein disulfide-isomerase (Homo sapiens, UniProt P07237); assay: inhibition of PDI-driven insulin aggregation – biochemical, turbidity, absorbance, cherry-picked samples, dose response (AID 602350); type: functional
[12] = molecular target: Proto-oncogene tyrosine-protein kinase receptor Ret (Homo sapiens, UniProt P07949); type: functional;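 also: measured within a kinome-wide profiling panel, RET as the panel member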
[13] = molecular target: Protein-tyrosine kinase 6 (Homo sapiens, UniProt Q13882); type: functional
[14] = molecular target: Serine/threonine-protein kinase Chk1 (Homo sapiens, UniProt O14757); type: functional;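 also: measured as one member of a kinome-wide kinase profiling panel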
[15] = molecular target: Serine/threonine-protein kinase PLK3 (Homo sapiens, UniProt Q9H4B4); type: functional
[16] = molecular target: ALK tyrosine kinase receptor (Homo sapiens, UniProt Q9UM73); type: functional;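 also: ALK tested as one member of a kinase panel screen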
Insulin receptor = Insulin receptor (Homo sapiens, UniProt P06213); type: functional;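 also: insulin receptor kinase tested as one member of a kinome-wide kinase panel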
[17] = molecular target: Macrophage colony-stimulating factor 1 receptor (Homo sapiens, UniProt P07333); type: functional;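 also: value comes from the Navigating the Kinome screening panel, CSF1R member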
[18] = molecular target: Vascular endothelial growth factor receptor 1 (Homo sapiens, UniProt P17948); type: functional;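 also: measured within a kinome-wide profiling panel, FLT1 as the panel member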
[19] = molecular target: Hepatocyte growth factor receptor (Homo sapiens, UniProt P08581); type: functional;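 also: kinase panel profiling across the kinome, with MET as the panel member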
[20] = molecular target: Serine/threonine-protein kinase PLK1 (Homo sapiens, UniProt P53350); type: functional;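 also: PLK1 measured as one member of a kinome-wide profiling panel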
[21] = molecular target: Receptor-type tyrosine-protein kinase FLT3 (Homo sapiens, UniProt P36888); type: functional;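 also: FLT3 was tested as one member of a kinome-wide kinase panel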
[22] = molecular target: Vascular endothelial growth factor receptor 2 (Homo sapiens, UniProt P35968); type: functional
[23] = molecular target: RAC-gamma serine/threonine-protein kinase (Homo sapiens, UniProt Q9Y243); type: functional
[24] = molecular target: Non-receptor tyrosine-protein kinase TYK2 (Homo sapiens, UniProt P29597); type: functional
[25] = molecular target: Serine/threonine-protein kinase PLK4 (Homo sapiens, UniProt O00444); type: functional;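 also: PLK4 measured as one member of a kinome-wide kinase profiling panel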
[26] = molecular target: RAC-alpha serine/threonine-protein kinase (Homo sapiens, UniProt P31749); type: functional;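 also: AKT1 affinity measured as one member of a kinome-wide kinase profiling panel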
[27] = molecular target: Fibroblast growth factor receptor 1 (Homo sapiens, UniProt P11362); type: functional
[28] = molecular target: Serine/threonine-protein kinase pim-3 (Homo sapiens, UniProt Q86V86); type: functional;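 also: value obtained as one member of a broad kinase panel profiling effort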
SRSF protein kinase 1 = SRSF protein kinase 1 (Homo sapiens, UniProt Q96SB4); type: functional;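 also: measured as one member of a kinome-wide kinase profiling panel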
[29] = molecular target: Casein kinase I isoform delta (Homo sapiens, UniProt P48730); type: functional;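 also: measured as one member (CSNK1D) of a kinome panel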
[30] = molecular target: Dual specificity tyrosine-phosphorylation-regulated kinase 1A (Homo sapiens, UniProt Q13627); type: functional;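 also: measured against DYRK1A as one member of a broad kinome profiling panel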
[31] = molecular target: Homeodomain-interacting protein kinase 4 (Homo sapiens, UniProt Q8NE63); type: functional
Aurora kinase A = Aurora kinase A (Homo sapiens, UniProt O14965); type: functional;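 also: value from the Navigating the Kinome kinase panel profiling, panel entry STK6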
[32] = molecular target: Inhibitor of nuclear factor kappa-B kinase subunit beta (Homo sapiens, UniProt O14920); type: functional
[33] = molecular target: Dual specificity tyrosine-phosphorylation-regulated kinase 1A (Rattus norvegicus, UniProt Q63470); type: biochemical, Homo sapiens
CHO-K1 = assay: (§1) Counterscreen for antagonists of the orexin 1 receptor (OX1R; HCRTR1): Homogeneous time resolved fluorescence (HTRF)-based cell-based dose response assay to identify antagonists of the parental CHO-K1 cell line. [Related pubchem assays (depositor defined):AID434989, AID435008, AID463079, AID485270, AID492963, AID492964, AID492965, AID493232, AID504699, AID504701]; type: functional; details: Cricetulus griseus
[34] = molecular target: T1, Orexin/Hypocretin receptor type 1 (Homo sapiens, UniProt O43613); assay: (§2) Fluorescence-based cell-based high throughput dose response assay for antagonists of the orexin 1 receptor (OX1R; HCRTR1). [Related pubchem assays (depositor defined):AID434989, AID435008, AID463079, AID485270, AID492963, AID492964, AID492965, AID493232, AID504717, AID504718]; type: functional
[35] = as §1, with “Fluorescence-based” for “Homogeneous time resolved fluorescence (HTRF)-based”, “cell-based high throughput” for “cell-based”, “CHO” for “CHO-K1”; type: functional
Orexin receptor type 2 [36] = molecular target: T2, Orexin receptor type 2 (Homo sapiens, UniProt O43614); assay: Counterscreen assay for antagonists of the orexin 1 receptor (OX1R; HCRTR1): Fluorescence-based cell-based dose response assay for antagonists of the orexin 2 receptor (OX2R; HCRTR2), run by assay provider.; type: functional
Orexin receptor type 2 [37] = molecular target: T2, Orexin receptor type 2; assay: Counterscreen assay for antagonists of the orexin 1 receptor (OX1R; HCRTR1): Homogeneous Time Resolved Fluorescence (HTRF)-based cell-based dose response assay for antagonists of the orexin 2 receptor (OX2R; HCRTR2), run by assay provider.; type: functional
[38] = molecular target: T1, Orexin/Hypocretin receptor type 1; assay: as §2, with “Homogeneous Time Resolved Fluorescence (HTRF)-based” for “Fluorescence-based”; type: functional

Serine/threonine-protein kinase pim-1, sequence (P11309 whole entry): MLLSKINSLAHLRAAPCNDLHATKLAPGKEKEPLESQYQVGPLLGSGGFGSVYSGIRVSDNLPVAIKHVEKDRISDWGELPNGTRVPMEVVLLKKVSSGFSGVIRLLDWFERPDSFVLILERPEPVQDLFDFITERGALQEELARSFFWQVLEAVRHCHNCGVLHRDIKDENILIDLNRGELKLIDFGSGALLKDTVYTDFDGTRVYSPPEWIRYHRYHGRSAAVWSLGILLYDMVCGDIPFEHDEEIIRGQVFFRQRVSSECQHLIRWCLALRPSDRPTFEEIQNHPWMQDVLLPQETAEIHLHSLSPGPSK
T1 sequence (O43613 whole entry): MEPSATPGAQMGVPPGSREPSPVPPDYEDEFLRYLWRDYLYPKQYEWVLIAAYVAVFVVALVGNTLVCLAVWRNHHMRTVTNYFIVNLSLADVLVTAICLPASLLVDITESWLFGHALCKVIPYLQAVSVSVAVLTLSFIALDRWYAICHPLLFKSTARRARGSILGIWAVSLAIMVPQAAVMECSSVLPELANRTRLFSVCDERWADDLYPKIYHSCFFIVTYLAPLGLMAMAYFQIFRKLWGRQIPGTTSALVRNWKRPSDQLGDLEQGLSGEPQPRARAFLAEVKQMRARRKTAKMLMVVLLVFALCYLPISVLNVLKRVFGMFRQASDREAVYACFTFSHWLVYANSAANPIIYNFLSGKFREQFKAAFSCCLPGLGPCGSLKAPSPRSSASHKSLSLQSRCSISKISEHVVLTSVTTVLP
Dual specificity protein kinase CLK4, sequence (Q9HAZ1 whole entry): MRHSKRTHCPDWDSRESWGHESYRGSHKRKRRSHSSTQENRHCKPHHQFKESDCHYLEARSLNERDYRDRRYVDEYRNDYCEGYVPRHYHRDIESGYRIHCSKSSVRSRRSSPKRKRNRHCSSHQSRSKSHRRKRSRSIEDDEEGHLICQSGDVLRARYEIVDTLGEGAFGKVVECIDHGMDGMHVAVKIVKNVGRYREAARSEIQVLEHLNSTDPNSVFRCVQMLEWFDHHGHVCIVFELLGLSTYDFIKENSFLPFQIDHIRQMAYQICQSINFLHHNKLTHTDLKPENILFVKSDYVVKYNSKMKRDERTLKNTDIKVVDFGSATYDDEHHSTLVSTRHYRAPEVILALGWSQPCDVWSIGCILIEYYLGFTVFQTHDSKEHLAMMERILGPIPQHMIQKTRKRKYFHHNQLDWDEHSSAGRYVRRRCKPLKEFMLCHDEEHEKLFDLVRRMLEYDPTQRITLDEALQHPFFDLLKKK
T2 sequence (O43614 whole entry): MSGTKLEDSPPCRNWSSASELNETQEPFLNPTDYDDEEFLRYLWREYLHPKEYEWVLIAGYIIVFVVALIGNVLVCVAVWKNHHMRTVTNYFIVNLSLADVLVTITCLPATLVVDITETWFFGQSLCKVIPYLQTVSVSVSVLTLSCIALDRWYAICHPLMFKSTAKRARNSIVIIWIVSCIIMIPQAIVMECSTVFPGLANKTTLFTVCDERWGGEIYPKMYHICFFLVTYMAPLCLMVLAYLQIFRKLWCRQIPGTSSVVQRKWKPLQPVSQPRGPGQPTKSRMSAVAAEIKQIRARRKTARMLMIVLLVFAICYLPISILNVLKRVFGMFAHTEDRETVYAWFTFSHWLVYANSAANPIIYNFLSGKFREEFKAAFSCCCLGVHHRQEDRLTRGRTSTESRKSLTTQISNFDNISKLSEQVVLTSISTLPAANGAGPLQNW
Interleukin-1 receptor-associated kinase 4, sequence (Q9NWZ3 whole entry): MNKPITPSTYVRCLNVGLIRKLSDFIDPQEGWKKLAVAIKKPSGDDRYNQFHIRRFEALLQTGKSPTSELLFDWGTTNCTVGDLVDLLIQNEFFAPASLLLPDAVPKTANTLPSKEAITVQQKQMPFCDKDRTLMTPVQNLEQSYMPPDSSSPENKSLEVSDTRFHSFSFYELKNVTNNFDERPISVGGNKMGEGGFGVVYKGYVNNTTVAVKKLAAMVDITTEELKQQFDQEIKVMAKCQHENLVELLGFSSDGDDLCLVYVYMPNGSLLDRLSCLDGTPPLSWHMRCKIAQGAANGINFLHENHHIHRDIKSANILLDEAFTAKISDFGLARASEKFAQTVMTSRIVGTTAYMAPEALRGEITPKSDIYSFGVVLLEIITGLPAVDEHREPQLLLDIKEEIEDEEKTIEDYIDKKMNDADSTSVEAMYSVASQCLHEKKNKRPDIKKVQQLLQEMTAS
Homeodomain-interacting protein kinase 4, sequence (Q8NE63 whole entry): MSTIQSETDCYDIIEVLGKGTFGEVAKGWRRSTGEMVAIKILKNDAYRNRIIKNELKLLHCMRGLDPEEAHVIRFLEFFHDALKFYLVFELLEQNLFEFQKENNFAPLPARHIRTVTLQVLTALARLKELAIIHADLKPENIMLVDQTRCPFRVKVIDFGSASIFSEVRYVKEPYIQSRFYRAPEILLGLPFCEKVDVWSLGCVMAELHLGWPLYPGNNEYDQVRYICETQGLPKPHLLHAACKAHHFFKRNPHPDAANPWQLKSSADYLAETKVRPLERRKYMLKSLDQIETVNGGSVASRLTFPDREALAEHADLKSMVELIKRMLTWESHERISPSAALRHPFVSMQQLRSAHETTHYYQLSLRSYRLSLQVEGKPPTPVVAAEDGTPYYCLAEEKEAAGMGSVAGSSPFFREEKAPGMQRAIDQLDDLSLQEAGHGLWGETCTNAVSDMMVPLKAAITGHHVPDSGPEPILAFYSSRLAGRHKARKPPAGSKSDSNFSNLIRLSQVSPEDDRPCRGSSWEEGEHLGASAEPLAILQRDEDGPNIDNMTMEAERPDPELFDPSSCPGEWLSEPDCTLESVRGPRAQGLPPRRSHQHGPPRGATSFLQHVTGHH
Cell division cycle 7-related protein kinase, sequence (O00311 whole entry): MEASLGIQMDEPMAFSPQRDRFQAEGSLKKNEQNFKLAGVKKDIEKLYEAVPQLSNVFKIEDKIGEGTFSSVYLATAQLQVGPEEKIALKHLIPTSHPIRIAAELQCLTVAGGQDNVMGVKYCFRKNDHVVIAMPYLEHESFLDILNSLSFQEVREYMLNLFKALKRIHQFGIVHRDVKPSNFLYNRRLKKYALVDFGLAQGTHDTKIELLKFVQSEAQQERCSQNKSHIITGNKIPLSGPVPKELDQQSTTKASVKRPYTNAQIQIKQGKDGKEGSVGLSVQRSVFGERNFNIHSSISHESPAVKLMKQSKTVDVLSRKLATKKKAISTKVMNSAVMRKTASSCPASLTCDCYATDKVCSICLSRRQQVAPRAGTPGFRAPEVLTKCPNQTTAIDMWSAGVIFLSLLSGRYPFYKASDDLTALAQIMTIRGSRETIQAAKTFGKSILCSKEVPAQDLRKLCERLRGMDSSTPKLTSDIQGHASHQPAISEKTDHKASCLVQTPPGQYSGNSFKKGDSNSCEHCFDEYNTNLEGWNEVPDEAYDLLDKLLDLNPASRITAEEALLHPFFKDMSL
Fibroblast growth factor receptor 1, sequence (P11362 whole entry): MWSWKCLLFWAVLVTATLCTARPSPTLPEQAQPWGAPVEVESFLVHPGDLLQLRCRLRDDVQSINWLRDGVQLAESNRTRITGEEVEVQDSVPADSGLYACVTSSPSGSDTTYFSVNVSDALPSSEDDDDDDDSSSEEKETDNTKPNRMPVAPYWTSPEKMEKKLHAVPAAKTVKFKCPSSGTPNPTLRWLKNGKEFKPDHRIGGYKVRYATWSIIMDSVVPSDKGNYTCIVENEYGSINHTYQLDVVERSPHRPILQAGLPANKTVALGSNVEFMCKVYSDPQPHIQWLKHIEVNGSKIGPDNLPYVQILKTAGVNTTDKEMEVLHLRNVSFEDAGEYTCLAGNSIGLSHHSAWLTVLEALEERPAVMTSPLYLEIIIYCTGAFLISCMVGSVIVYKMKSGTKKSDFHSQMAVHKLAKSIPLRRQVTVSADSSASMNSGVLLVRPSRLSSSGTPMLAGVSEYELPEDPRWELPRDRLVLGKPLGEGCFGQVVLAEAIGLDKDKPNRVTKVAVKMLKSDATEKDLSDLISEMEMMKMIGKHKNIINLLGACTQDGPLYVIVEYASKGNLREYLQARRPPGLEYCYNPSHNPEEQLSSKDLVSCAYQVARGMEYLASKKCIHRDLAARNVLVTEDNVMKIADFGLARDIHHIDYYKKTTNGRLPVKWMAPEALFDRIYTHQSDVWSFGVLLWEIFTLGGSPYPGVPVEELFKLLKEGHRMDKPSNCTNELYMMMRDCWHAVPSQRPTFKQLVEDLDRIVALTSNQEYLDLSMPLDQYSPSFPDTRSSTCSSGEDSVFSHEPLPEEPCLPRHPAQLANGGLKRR
Protein-tyrosine kinase 6, sequence (Q13882 whole entry): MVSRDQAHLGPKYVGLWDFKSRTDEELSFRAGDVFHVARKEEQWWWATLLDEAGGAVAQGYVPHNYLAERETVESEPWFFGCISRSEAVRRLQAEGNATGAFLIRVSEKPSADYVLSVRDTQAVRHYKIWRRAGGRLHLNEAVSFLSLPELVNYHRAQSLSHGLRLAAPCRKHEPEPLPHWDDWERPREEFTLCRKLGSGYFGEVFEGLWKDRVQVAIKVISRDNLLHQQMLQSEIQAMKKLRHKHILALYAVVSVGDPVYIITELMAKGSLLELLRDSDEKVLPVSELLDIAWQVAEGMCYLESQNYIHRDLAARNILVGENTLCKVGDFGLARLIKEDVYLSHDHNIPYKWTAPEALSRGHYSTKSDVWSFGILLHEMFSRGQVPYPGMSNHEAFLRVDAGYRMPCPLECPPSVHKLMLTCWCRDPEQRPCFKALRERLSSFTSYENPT
Aurora kinase A, sequence (O14965 whole entry): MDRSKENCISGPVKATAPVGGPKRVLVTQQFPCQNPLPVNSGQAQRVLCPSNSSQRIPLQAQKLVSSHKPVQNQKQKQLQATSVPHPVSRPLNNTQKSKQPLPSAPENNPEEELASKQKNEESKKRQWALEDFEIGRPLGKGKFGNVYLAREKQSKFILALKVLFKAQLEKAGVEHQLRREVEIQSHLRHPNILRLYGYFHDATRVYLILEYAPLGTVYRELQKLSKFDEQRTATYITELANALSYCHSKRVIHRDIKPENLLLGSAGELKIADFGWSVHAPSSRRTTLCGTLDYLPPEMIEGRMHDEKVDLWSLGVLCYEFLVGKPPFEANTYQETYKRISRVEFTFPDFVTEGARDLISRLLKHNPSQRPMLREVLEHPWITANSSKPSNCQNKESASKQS

SMILES: c1ccc2c(c1)[nH]c1cnccc12 [NORHARMANE]
Ki [1]: 6.31 µM (active)
Ki (Aurora kinase A): 15.8 µM (active)
Ki [32]: 7.94 µM (active)
AC50 [33]: 8.75 µM (active)

SMILES: Cc1ccc(NC2=NC(=O)/C(=C/c3cccn3C)S2)cc1C
IC50 (CHO-K1): > 66.2 µM (inactive)
IC50 [34]: 2.24 µM (active)
IC50 [35]: > 49.7 µM (inactive)
IC50 (Orexin receptor type 2 [36]): > 88.8 µM (inactive)
IC50 (Orexin receptor type 2 [37]): > 50 µM (inactive)
IC50 [38]: 2.2 µM (active)

More lines, now with the values ahead:

Ki [1]: 0.794 µM (active)
Ki [2]: 2 µM (active)
Ki [3]: 1.26 µM (active)
Ki [4]: 5.01 µM (active)
Ki [5]: > 10 µM (inactive)
Ki [6]: 0.631 µM (active)
Ki [7]: 0.02 µM (active)
Ki [8]: > 7.94 µM (inactive)
Ki [9]: > 7.94 µM (inactive)
Ki [10]: > 10 µM (inactive)
SMILES: Cc1sc2[nH]c(=O)n3nc(-c4ccncc4)nc3c2c1C

AC50 [11]: 19.5 µM (active)
SMILES: CC(C)Sc1nnc([C@H](Cc2c[nH]c3ccccc23)NC(=O)OC(C)(C)C)o1

Ki [12]: 10 µM (active)
Ki [13]: > 25.1 µM (inactive)
Ki [14]: > 79.4 µM (inactive)
Ki [15]: > 79.4 µM (inactive)
Ki [16]: 12.6 µM (active)
Ki [1]: 10 µM (active)
Ki (Insulin receptor): > 50.1 µM (inactive)
Ki [17]: > 25.1 µM (inactive)
Ki [18]: 2 µM (active)
Ki [19]: > 31.6 µM (inactive)
Ki [20]: > 79.4 µM (inactive)
Ki [21]: 5.01 µM (active)
Ki [22]: 15.8 µM (active)
Ki [23]: > 100 µM (inactive)
Ki [24]: > 20 µM (inactive)
Ki [25]: > 39.8 µM (inactive)
Ki [26]: > 79.4 µM (inactive)
Ki [27]: 10 µM (active)
Ki [28]: 12.6 µM (active)
SMILES: Nc1nnc2ccc(-c3ccccc3)cn12

Ki (SRSF protein kinase 1): 6.31 µM (active)
Ki [3]: 2.51 µM (active)
Ki [29]: 2.51 µM (active)
Ki [30]: 3.16 µM (active)
Ki [31]: 2 µM (active)
SMILES: CC(C)n1cnc2c(NCc3ccccc3)nc(NCCO)nc21
